Here are results for 71 compounds from patent US9447087B2, “Galactokinase inhibitors for the treatment and prevention of associated diseases and disorders” (UNIVERSITY OF UTAH RESEARCH FOUNDATION, priority 2011, dated 2016).

Molecules are shown by their SMILES.

Chain of GALK (P51570 whole entry): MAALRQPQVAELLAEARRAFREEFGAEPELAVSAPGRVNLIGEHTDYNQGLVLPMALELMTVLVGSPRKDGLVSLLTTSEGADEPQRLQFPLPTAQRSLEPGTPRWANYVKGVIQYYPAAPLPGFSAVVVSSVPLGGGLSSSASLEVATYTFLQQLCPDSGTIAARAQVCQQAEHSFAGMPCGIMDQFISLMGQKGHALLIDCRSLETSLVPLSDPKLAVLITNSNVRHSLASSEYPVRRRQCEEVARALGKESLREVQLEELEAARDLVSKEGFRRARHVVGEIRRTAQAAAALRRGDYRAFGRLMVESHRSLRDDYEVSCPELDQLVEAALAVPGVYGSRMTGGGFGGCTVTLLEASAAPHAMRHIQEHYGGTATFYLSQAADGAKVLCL

This assay has as its target GALK (Homo sapiens (Human), UniProt P51570). The experiment in a line: primary qHTS assay for inhibitors of GALK (KinaseGlo ATP depletion). The arrangement: GALK Assay Efficacy: unit not given here. The following applies: 5 nM GALK, 35 μM ATP, 1 hr incubation. It is filed as biochemical. The protocol: Assay details and protocol: The primary assay monitored ATP depletion using Promega's KinaseGlo™ technology, where ATP levels are measured through luminescence generated from firefly luciferase, a bioluminescent ATP-dependent enzymes. […] This was used as the positive control for the assay. […]
Consider `COc1ccc(NC(=O)C2=C(C)NC(Nc3nc4ccccc4o3)=NC2c2ccccc2Br)cc1` (stereo not drawn) [Compound 81], for which the IC50 turned out to be 3.26 µM. Compound `CC1(C)N=C(Nc2nc3ccccc3o2)NC2=C1C(=O)CCC2` [Compound 5] came in with an IC50 of 32.6 µM. In the case of `CC1(C)CC(=O)C2=C(C1)NC(Nc1nc3ccccc3o1)=NC21CCCCC1` [Compound 7], the IC50 stood at 5.17 µM. For the compound `CNC(=O)C1=C(C)NC(Nc2nc3ccccc3o2)=NC12CCCC2` [Compound 111], the IC50 is 20.6 µM. Take `O=C1CCCC2=C1C(c1n[nH]cc1Br)N=C(Nc1nc3ccccc3o1)N2` (stereo not drawn) [Compound 69]: half-maximal inhibition (IC50) was put at 2.91 µM. For the compound `O=C1CCCC2=C1C(c1ccncc1)N=C(Nc1nc3ccccc3o1)N2` (stereo not drawn) [Compound 50], the midpoint of inhibition, the IC50, lay at 42.1 µM. With `CC1=C(C(=O)NC2CC2)C(c2nn(C)cc2Cl)N=C(Nc2nc3ccccc3o2)N1` (stereo not drawn) [Compound 101], the midpoint of inhibition, the IC50, lay at 18.3 µM. As to `O=C1CCCC2=C1C(c1ccccc1)N=C(Nc1nc3ccccc3o1)N2` (stereo not drawn) [Compound 52], the IC50 came out at 34.3 µM.

For the compound `O=C1CCCC2=C1C(c1n[nH]cc1Cl)NC(Nc1nc3ccccc3o1)=N2` (stereo not drawn) [Compound 75], the IC50 turned out to be 2.91 µM. As to `O=C1CCCC2=C1C(c1ccccc1Br)N=C(Nc1nc3ccccc3o1)N2` (stereo not drawn) [Compound 41], it took 0.749 µM to reach half-maximal inhibition (IC50). Consider `O=C1CCCC2=C1C(c1ccccc1Cl)N=C(Nc1nc3ccccc3o1)N2` (stereo not drawn) [Compound 17], for which the IC50 was determined as 0.595 µM. With `CNC(=O)C1=C(C)NC(Nc2nc3ccccc3o2)=NC1c1n[nH]cc1Cl` (stereo not drawn) [Compound 109], half-maximal inhibition (IC50) was put at 18.3 µM. As to `CC1=C(C(=O)NCc2ccccc2)C(c2ccccc2Br)N=C(Nc2nc3ccccc3o2)N1` (stereo not drawn) [Compound 92], the IC50 was 6.51 µM.

The compound `CC1=C(C(=O)NC2CC2)C(c2n[nH]cc2Cl)N=C(Nc2nc3ccccc3o2)N1` (stereo not drawn) [Compound 110] came in with an IC50 of 20.6 µM. `O=C1CCCC2=C1C(c1ncccc1C(F)(F)F)N=C(Nc1nc3ccccc3o1)N2` (stereo not drawn) [Compound 58] registered an IC50 of 6.68 µM. The compound `CC1=C(C(=O)Nc2nc3ccccc3s2)C(c2nn(C)cc2Cl)N=C(Nc2nc3ccccc3o2)N1` (stereo not drawn) [Compound 98] gave a concentration for half-maximal inhibition (IC50) of 9.19 µM. `O=C1CCCC2=C1C(c1cccc(Cl)c1)N=C(Nc1nc3ccccc3o1)N2` (stereo not drawn) [Compound 37] had an IC50 of 61.1 µM. Turning to `CC1=C(C(=O)n2ccc3ccccc32)C(c2ccccc2Br)N=C(Nc2nc3ccccc3o2)N1` (stereo not drawn) [Compound 82], half-maximal inhibition (IC50) was put at 18.3 µM.

In turn, `CC1=C(C(=O)Nc2ccon2)C(c2nn(C)cc2Cl)N=C(Nc2nc3ccccc3o2)N1` (stereo not drawn) [Compound 112] came in with an IC50 of 9.19 µM. `CC1=C(C(=O)Nc2ccon2)C(c2nn(C)cc2Cl)N=C(Nc2nc3ccccc3o2)N1` (stereo not drawn) [Compound 97] yielded an IC50 of 8.19 µM. In the case of `O=C1CCCC2=C1C1(CCSC1)N=C(Nc1nc3ccccc3o1)N2` (stereo not drawn) [Compound 21], the IC50 came out at 2.66 µM.

As for `O=C1CCCC2=C1C(c1ccccc1Cl)N=C(Nc1nc3ccccc3o1)N2` (stereo not drawn) [Compound 57], the IC50 is 2.66 µM. As to `O=C1CCCC2=C1C(c1cccnc1Br)N=C(Nc1nc3ccccc3o1)N2` (stereo not drawn) [Compound 63], the IC50 is 14.6 µM.

On to `O=C1CCCC2=C1C(c1c(Cl)cccc1Cl)N=C(Nc1nc3ccccc3o1)N2` (stereo not drawn) [Compound 60], for which half-maximal inhibition (IC50) required 13 µM.

In the case of `O=C1CCCC2=C1C(c1ccn[nH]1)N=C(Nc1nc3ccccc3o1)N2` (stereo not drawn) [Compound 73], the IC50 worked out at 14.6 µM. `O=C1CCCC2=C1C(c1cccc(F)c1)N=C(Nc1nc3ccccc3o1)N2` (stereo not drawn) [Compound 42] displayed an IC50 of 68.5 µM. Turning to `Cn1cc(Br)c(C2N=C(Nc3nc4ccccc4o3)NC3=C2C(=O)CCC3)n1` (stereo not drawn) [Compound 70], half-maximal inhibition (IC50) was put at 2.91 µM. Regarding `O=C1CCCC2=C1C1(CCS(=O)(=O)C1)N=C(Nc1nc3ccccc3o1)N2` (stereo not drawn) [Compound 24, 2-(benzo[d]oxazol-2-ylamino)-4′,5′,7,8-tetrahydro-1H,2′H-spiro[quinazoline-4,3′-thiophen-1,1-dioxide]-5(6H)-one], the “GALK Assay Efficacy” value is recorded as 67.583 and the midpoint of inhibition, the IC50, lay at 6.68 µM. As to `CC1=C(C(=O)N(C)C)C(c2ccccc2Br)N=C(Nc2nc3ccccc3o2)N1` (stereo not drawn) [Compound 91], the IC50 came out at 20.6 µM. For the compound `CC1=C(C(=O)Nc2ccon2)C2(CCCC2)N=C(Nc2nc3ccccc3o2)N1` [Compound 94], the IC50 is 6.51 µM. In the case of `COc1cccc(C2N=C(Nc3nc4ccccc4o3)NC3=C2C(=O)CCC3)c1` (stereo not drawn) [Compound 44], the IC50 is 18.8 µM. With `O=C1CCCC2=C1C(c1ccccc1C(F)(F)F)N=C(Nc1nc3ccccc3o1)N2` (stereo not drawn) [Compound 39], half-maximal inhibition (IC50) was put at 12.2 µM.

Compound `CC1=C(C(=O)NC2CCCCC2)C(c2ccccc2Br)N=C(Nc2nc3ccccc3o2)N1` (stereo not drawn) [Compound 89] showed an IC50 of 9.19 µM. The same measure, in the same setting: next, `O=C1CCCC2=C1C(c1ccccc1I)N=C(Nc1nc3ccccc3o1)N2` (stereo not drawn) [Compound 66]: 1.16 µM. Consider `O=C1CCCC2=C1C(c1cccc(C(F)(F)F)c1)N=C(Nc1nc3ccccc3o1)N2` (stereo not drawn) [Compound 40], for which half-maximal inhibition (IC50) required 16.8 µM. Take `O=C1CCCC2=C1C(c1ccncc1Br)N=C(Nc1nc3ccccc3o1)N2` (stereo not drawn) [Compound 68]: the IC50 came out at 1.46 µM. Same read-out and setting: for `CC1=C(C(=O)Nc2nc3ccccc3s2)C2(CCCC2)N=C(Nc2nc3ccccc3o2)N1` [Compound 95] the value was 25.9 µM; for `O=C1CCCC2=C1C(c1ccncc1Br)N=C(Nc1nc3ccccc3o1)N2` (stereo not drawn) [Compound 71], 20.6 µM. `CN(C)c1ccc(C2N=C(Nc3nc4ccccc4o3)NC3=C2C(=O)CCC3)cc1` (stereo not drawn) [Compound 53] returned an IC50 of 76.9 µM. `O=C1CCCC2=C1C(c1ccc(F)cc1)N=C(Nc1nc3ccccc3o1)N2` (stereo not drawn) [Compound 51] yielded an IC50 of 61.1 µM. On the same count and under the same terms, for `Cc1cc(C2N=C(Nc3nc4ccccc4o3)NC3=C2C(=O)CCC3)n[nH]1` (stereo not drawn) [Compound 74] the value was 18.3 µM. Take `Cc1ccc(C2N=C(Nc3nc4ccccc4o3)NC3=C2C(=O)CCC3)cc1` (stereo not drawn) [Compound 47]: inhibition was half-maximal at 61.1 µM (IC50). The same measure, in the same setting: for `O=C1CCCC2=C1[C@@]1(CCC(c3ccccc3)C1)N=C(Nc1nc3ccccc3o1)N2` (stereo partly drawn) [Compound 12] the value was 47.3 µM. `CC1=C(C(=O)Nc2nnc(-c3ccccc3)s2)C(c2n[nH]cc2Cl)N=C(Nc2nc3ccccc3o2)N1` (stereo not drawn) [Compound 108] yielded an IC50 of 5.17 µM. As for `O=C1CCCC2=C1C1(CCSCC1)N=C(Nc1nc3ccccc3o1)N2` [Compound 22], the IC50 amounted to 1.06 µM.

`O=C1CCC2=C1C(c1ccccc1Cl)N=C(Nc1nc3ccccc3o1)N2` (stereo not drawn) [Compound 16] had an IC50 of 9.43 µM.

`CC1=C(C(=O)Nc2nncs2)C(c2nn(C)cc2Cl)N=C(Nc2nc3ccccc3o2)N1` (stereo not drawn) [Compound 102] had an IC50 of 5.17 µM. On to `O=C1CCCC2=C1C1(CCCOC1)N=C(Nc1nc3ccccc3o1)N2` (stereo not drawn) [Compound 23], for which the IC50 was 33.5 µM. Consider `COc1ccccc1C1N=C(Nc2nc3ccccc3o2)NC2=C1C(=O)CCC2` (stereo not drawn) [Compound 43], for which 48.5 µM corresponded to half-maximal inhibition (IC50). `CC1=C(C(=O)Nc2nncs2)C2(CCCC2)N=C(Nc2nc3ccccc3o2)N1` [Compound 93]: the IC50 is 3.26 µM.

Take `COc1ccc(C2N=C(Nc3nc4ccccc4o3)NC3=C2C(=O)CCC3)cc1` (stereo not drawn) [Compound 45]: the IC50 stood at 61.1 µM. Compound `CC1CCC2(C1)N=C(Nc1nc3ccccc3o1)NC1=C2C(=O)CCC1` (stereo not drawn) [Compound 14] gave an IC50 of 11.9 µM. In the case of `CC1=C(C(=O)Nc2ccccc2Cl)C(c2ccccc2Br)N=C(Nc2nc3ccccc3o2)N1` (stereo not drawn) [Compound 76], the IC50 came to 3.26 µM. For the compound `O=C1CCCC2=C1C(c1ccncc1Cl)N=C(Nc1nc3ccccc3o1)N2` (stereo not drawn) [Compound 55], the IC50 is 15.3 µM. Consider `CC1=C(C(=O)Nc2nc3ccccc3s2)C(c2n[nH]cc2Cl)N=C(Nc2nc3ccccc3o2)N1` (stereo not drawn) [Compound 107], for which the IC50 amounted to 11.6 µM. Regarding `CC1=C(C(=O)Nc2ccccc2)C(c2ccccc2Br)N=C(Nc2nc3ccccc3o2)N1` (stereo not drawn) [Compound 90], the IC50 came to 9.19 µM. `O=C1CCCC2=C1C(c1cnccc1C(F)(F)F)N=C(Nc1nc3ccccc3o1)N2` (stereo not drawn) [Compound 59] showed an IC50 of 6.68 µM. In turn, `O=C1CCCC2=C1C(c1ncccc1Br)N=C(Nc1nc3ccccc3o1)N2` (stereo not drawn) [Compound 67] gave an IC50 of 0.651 µM. On the same count and under the same terms, for `CC1=C(C(=O)N(C)c2ccccc2C)C(c2ccccc2Br)N=C(Nc2nc3ccccc3o2)N1` (stereo not drawn) [Compound 83] the value was 10.3 µM; for `CC1=C(C(=O)Nc2nnc(-c3ccccc3)s2)C(c2nn(C)cc2Cl)N=C(Nc2nc3ccccc3o2)N1` (stereo not drawn) [Compound 100], 3.66 µM; for `CC1=C(C(=O)Nc2ccccc2C)C(c2ccccc2Br)N=C(Nc2nc3ccccc3o2)N1` (stereo not drawn) [Compound 78], 4.61 µM. With `Cn1ncc(Cl)c1C1N=C(Nc2nc3ccccc3o2)NC2=C1C(=O)CCC2` (stereo not drawn) [Compound 64], the IC50 worked out at 36.6 µM.

The compound `CC1=C(C(=O)Nc2ccc(Cl)cc2)C(c2ccccc2Br)N=C(Nc2nc3ccccc3o2)N1` (stereo not drawn) [Compound 77] yielded an IC50 of 5.17 µM. Turning to `Cc1ccsc1C1N=C(Nc2nc3ccccc3o2)NC2=C1C(=O)CCC2` (stereo not drawn) [Compound 65], the IC50 worked out at 9.19 µM. Same read-out and setting: next, `Cc1ccc(C2N=C(Nc3nc4ccccc4o3)NC3=C2C(=O)CCC3)s1` (stereo not drawn) [Compound 48]: 61.1 µM. With `CC1=C(C(=O)Nc2ccon2)C(c2ccccc2Br)N=C(Nc2nc3ccccc3o2)N1` (stereo not drawn) [Compound 84], half-maximal inhibition (IC50) was put at 5.8 µM. Take `Cc1cccc(C2N=C(Nc3nc4ccccc4o3)NC3=C2C(=O)CCC3)c1` (stereo not drawn) [Compound 46]: the IC50 turned out to be 61.1 µM. As to `O=C1CCCC2=C1C(c1ccc(Cl)cc1)N=C(Nc1nc3ccccc3o1)N2` (stereo not drawn) [Compound 38], the IC50 was found to be 68.5 µM. The compound `CC1=C(C(=O)Nc2nncs2)C(c2ccccc2Br)N=C(Nc2nc3ccccc3o2)N1` (stereo not drawn) [Compound 86] yielded an IC50 of 3.26 µM. The compound `CNC(=O)C1=C(C)NC(Nc2nc3ccccc3o2)=NC1c1nn(C)cc1Cl` (stereo not drawn) [Compound 105] yielded an IC50 of 16.3 µM. `O=C1CCCC2=C1C(c1cccnc1Cl)N=C(Nc1nc3ccccc3o1)N2` (stereo not drawn) [Compound 61] gave an IC50 of 18.8 µM.

Usually IC50 stands for the point on the concentration scale where inhibition reaches its midpoint.
